Reference: ChEMBL document CHEMBL4406899, “Design, synthesis, and biological evaluation of 2-amino-N-(2-methoxyphenyl)-6-((4-nitrophenyl)sulfonyl)benzamide derivatives as potent HIV-1 Vif inhibitors” (Bioorg Med Chem Lett, 2019)

Columns and labels:
[1] = tested on: Human immunodeficiency virus 1; experiment: Antiviral activity against HIV1 infected in human H9 cells assessed as decrease in p24 antigen production incubated for 7 days by ELISA; assay type: functional, organism-based; conditions: Human immunodeficiency virus 1, H9, 168 h
[2] = Selectivity index, ratio of CC50 for human H9 cells to EC50 for antiviral activity against HIV-1; assay type: toxicity; conditions: read-out: Ratio CC50/EC50
[3] = Cytotoxicity against human H9 cells assessed as reduction in cell viability incubated for 7 days by MTT assay; assay type: cell-based

| Structure (SMILES) | EC50 [1] [µM] | selectivity ratio [2] | CC50 at 168 h [3] [µM] |
| --- | --- | --- | --- |
| COc1ccccc1NC(=O)c1c(N)cccc1Sc1ccc([N+](=O)[O-])cc1 | 2.12 | 263 | 462 |
| COc1ccccc1NC(=O)c1c(N)cccc1S(=O)(=O)c1ccc(C(F)(F)F)cc1 | 4.62 | 96.5 | 444 |
| COc1ccccc1NC(=O)c1c(N)cccc1S(=O)(=O)c1ccc(C(=O)O)cc1 | 235 | – | – |
| COc1ccccc1NC(=O)c1c(N)cccc1Sc1cc(C)cc(C)c1 | 9.6 | 18.9 | 181 |
| COc1ccc(NC(=O)c2c(N)cccc2Sc2ccc([N+](=O)[O-])cc2)c(OC)c1 | 20.3 | 4.06 | 82.5 |
| COc1ccccc1NC(=O)c1c(N)cccc1Sc1ccc(C(=O)O)cc1 | 252 | – | – |
| COc1ccccc1NC(=O)c1c(N)cccc1S(=O)(=O)c1cc(C)cc(C)c1 | 244 | – | – |
| COc1ccccc1NC(=O)c1c(N)cccc1S(=O)(=O)c1ccc(F)cc1 | 12.3 | 53.7 | 499 |
| COc1ncccc1NC(=O)c1c(N)cccc1Sc1ccc([N+](=O)[O-])cc1 | 25.9 | 7.03 | 182 |
| CS(=O)(=O)Oc1ccccc1NC(=O)c1c(N)cccc1Sc1ccc([N+](=O)[O-])cc1 | 79.9 | 5.28 | 422 |
| COc1ncccc1NC(=O)c1c(N)cccc1S(=O)(=O)c1ccc([N+](=O)[O-])cc1 | 228 | – | – |
| COc1ccccc1NC(=O)c1c(N)cccc1Sc1ccc(F)cc1 | 44.8 | 15.6 | 543 |
| Nc1cccc(Sc2ccc([N+](=O)[O-])cc2)c1C(=O)Nc1ccccc1O | 9.8 | 15.6 | 153 |
| COc1ccccc1NC(=O)c1c(N)cccc1Sc1ccncc1 | 176 | 3.23 | 569 |
| Nc1ccccc1NC(=O)c1c(N)cccc1Sc1ccc([N+](=O)[O-])cc1 | 15.1 | 28.3 | 427 |
| Nc1cccc(Sc2ccc([N+](=O)[O-])cc2)c1C(=O)Nc1ccccc1I | 125 | 3.26 | 407 |
| COc1ccccc1NC(=O)c1c(N)cccc1Sc1ccc(C(F)(F)F)cc1 | 24.2 | 14.6 | 352 |
| Nc1cccc(S(=O)(=O)c2ccc([N+](=O)[O-])cc2)c1C(=O)Nc1ccccc1I | 30.9 | 12.4 | 382 |
